Experimental data: BindingDB's records for patent US12071425 (Genentech, 2024)

Biological target: T1, Serine/threonine-protein kinase/endoribonuclease IRE1 [D688N] (Homo sapiens, UniProt O75460, D688N)
T1 construct: gene ERN1
Assay: IRE1α TR-FRET Competition Binding Assay
Experimental: To determine the affinity of compound binding to the kinase domain of IRE1 alpha, a Time Resolved Fluorescence Resonance Energy Transfer (TR-FRET) competition assay was used. A His-tagged IRE1 alpha kinase dead construct containing the kinase and RNase domains (KR, AA G547-L977, D688N) was expressed in Sf9 insect cells. The purified protein (final concentration 0.006 μM micromolar) was pre-incubated with anti-His Europium labeled antibody (Life Technologies PV5596, final concentration 0.002 μM micromolar) for one hour at 4° C. in 1X TR-FRET Assay Buffer (50 mM HEPES, pH 7.5.10 mM MgCl2, 0.083 mM Brij 35, 1 mM DTT, and 0.1% bovine gamma globulin) prior to addition to test compounds. A fluorescent labeled probe based on an ATP competitive inhibitor (Kinase Tracer 236, Life Technologies PV5592) is added to a final concentration of 0.1 μM (micromolar). Reactions were carried out for one hour at room temperature in a final volume of 20 μL (microliter) in 384 well white ProxiPlates (Perkin Elmer 6008289). Binding of the tracer to the IRE1 protein alpha was detected in an Envision instrument (PerkinElmer) equipped with a TRF laser option and a LANCE/Delfia Dual/Bias D400/D630 mirror (Ex 347 nm, 1st Em 665 nm, 2nd Em 615 nm).

T1 sequence (O75460 19-977 D688N limits assumed): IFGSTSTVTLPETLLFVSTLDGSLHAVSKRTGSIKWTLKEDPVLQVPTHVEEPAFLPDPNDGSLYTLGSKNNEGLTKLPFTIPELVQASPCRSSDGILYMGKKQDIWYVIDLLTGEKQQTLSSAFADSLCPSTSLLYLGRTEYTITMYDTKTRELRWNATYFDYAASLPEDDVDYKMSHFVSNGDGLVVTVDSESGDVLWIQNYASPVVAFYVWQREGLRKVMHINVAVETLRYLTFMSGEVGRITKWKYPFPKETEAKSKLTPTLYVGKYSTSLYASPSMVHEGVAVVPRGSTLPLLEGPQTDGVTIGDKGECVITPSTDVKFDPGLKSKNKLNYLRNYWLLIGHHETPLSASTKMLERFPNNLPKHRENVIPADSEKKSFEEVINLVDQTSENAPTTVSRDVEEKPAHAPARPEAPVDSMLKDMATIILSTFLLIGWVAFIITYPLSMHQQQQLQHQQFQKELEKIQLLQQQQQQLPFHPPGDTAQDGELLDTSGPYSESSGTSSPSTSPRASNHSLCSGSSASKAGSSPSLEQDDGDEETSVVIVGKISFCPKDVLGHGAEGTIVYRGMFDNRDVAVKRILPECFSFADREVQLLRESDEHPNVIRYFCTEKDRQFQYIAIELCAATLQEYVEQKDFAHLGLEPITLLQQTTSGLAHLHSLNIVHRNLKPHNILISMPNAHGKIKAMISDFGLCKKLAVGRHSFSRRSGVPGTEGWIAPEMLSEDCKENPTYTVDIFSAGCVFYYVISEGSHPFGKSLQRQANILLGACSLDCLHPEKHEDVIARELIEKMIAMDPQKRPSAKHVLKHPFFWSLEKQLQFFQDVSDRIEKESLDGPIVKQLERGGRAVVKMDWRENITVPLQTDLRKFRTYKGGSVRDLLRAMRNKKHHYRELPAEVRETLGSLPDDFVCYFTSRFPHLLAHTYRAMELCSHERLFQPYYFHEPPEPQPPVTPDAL

Q: How did the IC50 turn out when `O=S(=O)(CC(F)(F)F)Nc1c(F)cc(Oc2ncccc2-c2ccnc(N[C@@H]3CNC[C@@H](F)C3)n2)c(F)c1F` [US12071425, Compound 260] was run?
A: The IC50 was 2.6 nM.

Q: With `CN(C)[C@H]1CC[C@H](Nc2nccc(-c3cccnc3Oc3cc(F)c(NS(=O)(=O)CCC(F)(F)F)c(F)c3F)n2)CC1` [US12071425, Compound 382] as the compound, how does the IC50 read?
A: The IC50 was 2 nM.

Q: Which IC50 does the source give for `O=S(=O)(Nc1ccc(Oc2ncccc2-c2ccnc(N[C@H]3CCCNC3)n2)c(F)c1F)c1ccccc1Cl` [US12071425, Compound 227] here?
A: The IC50 was 4.8 nM.
